Blank lines part the entries; values can stand above or below the molecule they belong to.
Experiments:
[1] = test system: Human lung cancer sections; assay: Patient-derived ex-vivo tumor explant culture on tumor microenvironment platform; H&E and IHC for cleaved caspase 3, MICA/B and CD56; format: cell-based; conditions: cultured 72 hours in tumor microenvironment platform, IHC, FIG. 1
Description: The relevance of changes in the immune contexture of the tumor tissue culture microbed for a non-immunmodulatory agent, either as monotherapy or in combination with an immunomodulatory agent, was examined. Human lung cancer sections from the same patient cultured for 72 hours in the tumor microenvironment platform with gefitinib (a small molecule kinase inhibitor) alone, osimertinib (another small molecule kinase inhibitor)+Pembrolizumab, or vehicle control were assayed for H&E staining and cleaved caspase 3, MICA/B (cell surface ligands that bind immunoreceptors present on natural killer (NK) cells), and CD56 (marker of NK cells) expression.

[2] = test system: gastrointestinal stromal tumor; assay: M-score (sensitivity index) from tumor-associated marker assays on tumor tissue culture; format: cell-based, human; conditions: Patient 1, gastrointestinal stromal tumor
Description: The tumor tissue cultures were also evaluated using standard assays for tumor proliferation, tumor cell death, tumor morphology, and tumor cell viability as previously described, including tetrazolium salt WST-1 viability assay; LDH release; ATP uptake; glucose uptake; Caspase 3, Caspase 8, and Ki67 expression; and H&E staining. The results of the assays for tumor-associated markers were used to generate assessment scores that were input into a machine-trained algorithm to generate a clinical outcome predictor in the form of an “M-score” for each patient.
M-score based on tumor-associated markers was determined for each of the tissue pairs as previously described.
(§1) The M-score based on tumor-associated markers and tumor:stroma ratio of CD56+ cells in tumor tissue cultures under control conditions or under pressure from treatment with anticancer drug regimens was determined as described above for 3 different patients whose clinical outcome in response to the respective treatment was known.

[3] = test system: gastrointestinal stromal tumor; assay: CD56+ NK cell tumor:stroma ratio by IHC in tumor tissue culture; format: cell-based, human; conditions: Patient 1, gastrointestinal stromal tumor; control ratio 3
Description: The spatial heterogeneity of CD56+ lymphocytes (NK) in areas of tumor vs stroma in pairs of tissues (for control and treatment conditions) from each of a number of patients cultured in the tumor microenvironment platform and treated with various conventional and immuno-modulatory therapies was investigated. IHC analysis for CD56+ cells in slices of tissues under treatment and control conditions was performed, and the number of CD56+ cells in tumor and stromal regions was determined (FIG. 2A). M-score based on tumor-associated markers was determined for each of the tissue pairs as previously described. The ratio of CD56+ cells in areas of tumor cells vs areas of stroma in untreated and drug pressure conditions from the tissue pairs was calculated (FIG. 2B), and the fold change from vehicle to treatment conditions for each pair was determined and binned by M-score >25 and M-score ≤25 (FIG. 2C).
The predictive power of the change in spatial heterogeneity of CD56+NK cells in areas of tumor vs stroma under pressure from treatment with anticancer drug regimens was evaluated. […]

[4] = test system: gastrointestinal stromal tumor; assay: Known clinical outcome of the patient in response to the treatment; format: in vivo, human; conditions: Patient 1, gastrointestinal stromal tumor
Description: as §1

Cleaved caspase 3 expression ([1]; vs vehicle control): significantly increased
Structure (SMILES): COc1cc2ncnc(Nc3ccc(F)c(Cl)c3)c2cc1OCCCN1CCOCC1 [gefitinib]
infiltration of NK cells (CD56) ([1]; vs vehicle-treated): increase
tumor cell MICA/B expression ([1]; vs vehicle-treated): increase

Structure (SMILES): CC[C@@]1(O)C(=O)OCc2c1cc1n(c2=O)Cc2cc3c(CN(C)C)c(O)ccc3nc2-1 [topotecan]
M-score [2]: (M-score = 36)
M-score prediction [2]: Responder
Treatment CD56+ tumor:stroma ratio [3]: 5
Clinical response [4]: Responder

Source: US20190361006A1, “METHOD OF PREDICTING CLINICAL OUTCOME OF ANTICANCER AGENTS” (MITRA RXDX, INC., priority 2017, published 2019)
